This assay relates to CEM cells HIV-1 protection, formazan growth assay. Description: NCI AIDS Antiviral Assay. The following applies: for IC50: measured here: growth of uninfected CEM cells. The essentials: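 Screen of anti-HIV-1 activity in human CEM cells using a formazan-based growth measurement at five drug concentrations. Hits with 50% or greater protection were repeated, and confirmation required reproducible complete protection.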

The source made the active and inactive calls.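 How the source made its calls: active means compounds giving half or more protection of infected cells from virus-caused growth loss, again on retest; inactive means the rest.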

The term EC50 denotes the concentration giving half of the maximal effect. In general, IC50 refers to the midpoint of a concentration-inhibition curve. A low value points to higher potency. In the case of `O=C1CS/C(=N/N=C/c2nc3ccccc3c(=O)n2-c2ccc(Cl)cc2)N1c1ccccc1`, the EC50 is more than 38 µM and the IC50 was more than 38 µM.
For the compound `CCCCC[C@H](O)[C@H](C)C=C1SCCCS1`, the EC50 was more than 200 µM and the IC50 was 97.7 µM.
Taken in the same sequence, the figures for `COc1ccc(C2CCC(=O)CC2(O)C(=O)O)cc1` (stereo not given) were more than 251 µM and more than 251 µM.
Taken in the same sequence, the figures for `NS(=O)(=O)c1nnc(NS(=O)(=O)c2ccc(F)cc2)s1` were more than 200 µM and more than 200 µM.
With `Oc1ccc(-c2ccc(O)cc2O)c(O)c1`, the EC50 was more than 200 µM and the IC50 was 132 µM.
As to `COP(=O)(OC)C(=NCc1ccccc1)NNc1ccc([N+](=O)[O-])cc1`, the EC50 was more than 200 µM and the IC50 came out at 191 µM.
For the compound `CC1(C)N([O-])[N+](=O)C1(Br)c1ccccc1` (stereo not given), the EC50 is more than 200 µM and the IC50 came out at 145 µM.
As to `CCCCOC(=O)NC(Nc1ccc(S(=O)(=O)Nc2ccc(OC)nn2)cc1)(C(F)(F)F)C(F)(F)F`, the EC50 is more than 200 µM and the IC50 was more than 200 µM.
`COc1cccc(C2c3cc4c(cc3OC(C)(O)C2C)OCO4)c1O` (stereo not given): the EC50 was more than 200 µM and the IC50 stood at 0.646 µM.
Taken in the same sequence, the figures for `O=[N+]([O-])c1cccc(C2=NN(c3ccccc3)C3c4ccccc4OCC23)c1` (stereo not given) were more than 7.41 µM and more than 7.41 µM.
As for `CCOC(=O)[C@@]12C(=O)[C@@H](C)CC[C@@H]1[C@@H](C)C[C@H]2C=C(C)C`, the EC50 was more than 200 µM and the IC50 came to 110 µM.
Take `C1CN(SSN2CCOCC2)CCO1`: the EC50 was more than 200 µM and the IC50 was determined as 126 µM.
The matching figures for `CC(=O)OCC12C(OC(C)=O)C[C@@H](C)C3(CC(c4ccoc4)OC3=O)C1CCC(OC(C)=O)C21CO1` (stereo not given in full): more than 200 µM and more than 200 µM.
The matching figures for `CC1=C(C#N)C(C#N)(C#N)C(NN(C)C)C1` (stereo not given): more than 200 µM and 3.8 µM.
As for `O=C(CBr)OCCCS(=O)(=O)O`, the EC50 is more than 200 µM and the half-inhibitory concentration (IC50) is more than 200 µM.
As for `C[C@H](N[C@H]1CCC[C@]1(O)C#Cc1ccc2c(c1)OCO2)c1ccccc1`, the EC50 is more than 50.1 µM and the IC50 was 28.8 µM.
As for `NCCSSCCCCSSCCN`, the EC50 was more than 200 µM and the IC50 came out at 12.3 µM.
Taken in the same sequence, the figures for `O=C1NN=C2CCCCCCC12` (stereo not given) were more than 302 µM and more than 302 µM.
The matching figures for `Cc1ccccc1N1C(=O)[N+](C)(C)N=C1[O-]`: more than 1150 µM and more than 1150 µM.
Taken in the same sequence, the figures for `CCC(=O)OC1=C(c2ccccc2)Sc2ccc(Cl)cc2-n2cccc21` were more than 200 µM and 12 µM.
Consider `Cn1c(SCc2ccc([N+](=O)[O-])cc2)nnc1C12CC3CC(CC(C3)C1)C2`, for which the EC50 is more than 200 µM and the IC50 was determined as 110 µM.
On to `NC(=O)NC(=O)C1CCC(=O)N1S(=O)(=O)c1ccc(Cl)cc1` (stereo not given), for which the EC50 was more than 724 µM and the IC50 amounted to 141 µM.
The matching figures for `Nc1nc(=S)[nH]c(N)c1N=O`: 85.1 µM and 120 µM.
Consider `OCC1OC(c2cccc3cc(O)c(O)cc23)CC1O` (stereo not given), for which the EC50 is more than 200 µM and the IC50 amounted to 51.3 µM.
The matching figures for `CC1(C)CCC[C@]2(C)[C@H]3[C@H](C#N)c4cc(O)c(O)cc4O[C@@]3(C)CC[C@@H]12`: more than 200 µM and 1.41 µM.
For `Cc1nnc2sc(/C=C/c3ccccc3)nn12`, the result was inactive and the IC50 is more than 200 µM.
Take `O=C(Nc1ccc(N=Nc2ccc(O)c(C(=O)O)c2)cc1)Nc1ccc(N=Nc2ccc(O)c(C(=O)O)c2)cc1`: the EC50 is more than 200 µM and the IC50 is 141 µM.
For `O=Nc1[nH]c(O)c2ccccc12`, the EC50 is more than 200 µM and the IC50 is more than 200 µM.
For `CC(=O)C1(N=Nc2ccc(S(=O)(=O)Nc3nnc(C)s3)cc2)CCOC1=O` (stereo not given), the EC50 is more than 200 µM and the IC50 was more than 200 µM.
Turning to `C=CC[C@]12C=C(OC)[C@@H](O)[C@](OC)(C(c3cc(OC)c4c(c3)OCO4)[C@H]1C)[C@H]2OC(C)=O` (stereo not given in full), the EC50 was more than 200 µM and the IC50 is 129 µM.
`CC1=C(\C=C/C(C)=C/C=C/C(C)=C/C=C/C=C(C)\C=C\C=C(C)/C=C/C2=C(C)CCCC2(C)C)C(C)(C)CCC1`: the EC50 is more than 200 µM and the IC50 came out at 97.7 µM.
The matching figures for `c1ccc2c(c1)[nH]c1cnc3c4cccnc4[nH]c3c12`: more than 135 µM and 12.6 µM.
The matching figures for `O=C1/C(=C/c2ccccc2)CN(C(=O)CCN2CCCC2)C/C1=C\c1ccccc1`: more than 575 µM and 0.813 µM.
On to `Nc1nc(Cl)c(N)c(NCC2(CO)CC(O)C2)n1` (stereo not given), for which the EC50 is more than 200 µM and the IC50 was more than 200 µM.
Take `N=c1oc2ccc(Cl)cc2cc1C(=O)NCc1ccccc1`: the EC50 was more than 200 µM.
Take `O=c1ssc2ccccc12`: the EC50 is more than 200 µM and the IC50 is 120 µM.
Consider `O=C1NCc2c1[nH]c(=O)[nH]c2=O`, for which the EC50 is more than 155 µM and the IC50 was more than 155 µM.
As for `FC(F)(Sc1ncccn1)c1nc2ccccc2o1`, the EC50 is 19.5 µM and the IC50 stood at 102 µM.
Taken in the same sequence, the figures for `CCOc1ccc(/C=C(\C#N)c2cccc(Cl)c2)cc1` were more than 200 µM and 8.51 µM.
Taken in the same sequence, the figures for `CC(=O)Nc1ncc(Sc2ccc([N+](=O)[O-])cc2)s1` were more than 200 µM and more than 200 µM.
The matching figures for `CCCC(=O)n1[nH]c(=O)n(-c2ccc(Cl)cc2)c1=O`: more than 200 µM and more than 200 µM.
With `Cc1nc(C)c(C(=O)NNC(=O)C[N+](C)(C)C)cc1C(=O)NNC(=O)C[N+](C)(C)C`, the EC50 is more than 200 µM and the IC50 was more than 200 µM.
On to `O=[N+]([O-])c1cc(-c2ccccc2)c([O][Sn]([c]2ccccc2)([c]2ccccc2)[c]2ccccc2)c([N+](=O)[O-])c1`, for which the EC50 was more than 200 µM and the IC50 was 3.8 µM.
`O=c1oc2ccccc2c2c1SC(c1ccncc1)C2` (stereo not given): the EC50 is more than 200 µM and the IC50 is more than 200 µM.
`COc1ccc2c(=O)c3ccccc3oc2c1`: the EC50 is more than 200 µM and the IC50 came to 97.7 µM.
Taken in the same sequence, the figures for `O=C1CCCCCCCCCCOC(=O)CCCCCCCCCCO1` were more than 10.2 µM and more than 10.2 µM.
The matching figures for `CC(CN(C)C)OC(=O)c1cc2ccccc2n1-c1ccccc1` (stereo not given): more than 200 µM and 91.2 µM.
On to `Nc1c(-c2ccccc2)oc2ccccc2c1=O`, for which the EC50 is more than 200 µM and the IC50 is more than 200 µM.
Take `Nc1cc(OCc2ccccc2)c(OCc2ccccc2)cc1C=O`: the EC50 was more than 200 µM and the IC50 was found to be 18.6 µM.
As for `CCOCN1COCN=C1NC#N`, the EC50 is more than 490 µM and the IC50 is more than 490 µM.
With `N#CC(C#N)[C@@H]1CCC=C(Sc2ccccc2)[C@H]1Sc1ccccc1`, the EC50 was more than 20 µM and the IC50 amounted to 3.63 µM.
As for `CC(=O)c1cccc(C)c1C(=O)O`, the outcome was inactive.
For `CSc1nc(C)c(C(=O)CCN2CCN(c3ccccn3)CC2)s1`, the EC50 was more than 87.1 µM and the IC50 is 4.37 µM.
For `CCOc1c2c(nn(C)c1=O)Oc1ccccc1N2CCCN1CCOCC1`, the EC50 is more than 589 µM and the IC50 worked out at 19.1 µM.
Taken in the same sequence, the figures for `Cc1cc2ccccc2oc(=O)/c1=N\Nc1ccccc1` were more than 200 µM and 34.7 µM.
Taken in the same sequence, the figures for `CCOC(=O)/C(F)=C/c1ccc(F)cc1` were more than 123 µM and more than 123 µM.
With `N/N=C(/CC(O)(C(F)(F)F)C(F)(F)F)c1ccccc1`, the EC50 was more than 200 µM and the IC50 stood at 112 µM.
The matching figures for `CN(C)[C@@H]1C(=O)C(C(=O)NCNC(CO)(CO)CO)=C(O)[C@@]2(O)C(=O)C3=C(O)c4c(O)cccc4[C@@](C)(O)[C@H]3C[C@@H]12`: more than 42.7 µM and 33.9 µM.
Turning to `Nc1ccccc1-c1noc(=O)[nH]1`, the EC50 is more than 200 µM and the IC50 is more than 200 µM.
Take `CCOC(=O)C1=C(O)CSC1=Nc1ccc(N=C2SCC(O)=C2C(=O)OCC)cc1`: the outcome was inactive.
As for `CCOc1ccc(/C=C(\Cl)c2ccc(OC)cc2)cc1`, the EC50 is more than 200 µM and the IC50 was more than 200 µM.
As for `O=C(Cn1cc(I)c(C(=O)NCC(O)CO)n1)NCC(O)CO` (stereo not given), the EC50 is more than 562 µM and the IC50 is more than 562 µM.
Regarding `CC(C1=C(CCN(C)C)Cc2ccccc21)c1ccccn1` (stereo not given), the EC50 is more than 200 µM and the IC50 was found to be 155 µM.
Taken in the same sequence, the figures for `O=C(c1ccccc1)n1[nH]c(=O)n(-c2ccc(Cl)cc2)c1=O` were more than 200 µM and more than 200 µM.
Taken in the same sequence, the figures for `N#C/C(=C\n1ccc(=O)[nH]c1=S)c1nc2ccccc2s1` were more than 200 µM and more than 200 µM.
The matching figures for `Cc1oc2c(c1C)S(=O)(=O)C(C#N)=C(c1ccccc1)N2`: more than 200 µM and more than 200 µM.
For the compound `COc1ccc(CCc2cc(OC)c(O)c(OC)c2)cc1`, the EC50 is more than 200 µM and the IC50 came out at 10.5 µM.
For the compound `CN(C)c1ccc(/C=C2\Oc3ccccc3C2=O)cc1`, the EC50 was more than 200 µM and the IC50 was more than 200 µM.
Turning to `O=C(O)c1cc2ccc(O)c(O)c2cn1`, the EC50 is more than 56.2 µM and the IC50 was determined as 2.04 µM.
The matching figures for `O=S1(=O)CCN(Cc2ccccc2)/C1=N\S(=O)(=O)c1ccc(Cl)cc1`: more than 200 µM and 17 µM.
Taken in the same sequence, the figures for `CN(NC(=O)c1ccco1)C1=NCCCCN1` were more than 200 µM and more than 200 µM.
For the compound `COc1ccc(/C=C2\N=C(N3CCCCC3)NC2=O)cc1`, the EC50 is more than 200 µM and the IC50 was more than 100 µM.
For the compound `O=c1nc(NC(c2ccccc2)(c2ccccc2)c2ccccc2)ccn1CCO`, the outcome was inactive.
For the compound `Cc1nn(C(=O)c2ccc(Cl)cc2)c2c1C(c1ccc([N+](=O)[O-])cc1)SC(N)=N2` (stereo not given), the EC50 was more than 200 µM and the IC50 came out at 97.7 µM.
As for `N#CCCCCCOCCOCCOCCOCCOCCCCCC#N`, the outcome was inactive.

For the origin of these results see PubChem BioAssay AID179 (DTP/NCI, 2004).
